Data: patent US20120202840A1, “Use of Flubendazole and Vinca Alkaloids for Treatment of Hematological Diseases” (priority 2009, published 2012)
“Also recorded” adds a separate entry of the source. Where two headings read alike, the source gives them in different places.

Key:
CEM-VBL = assay: MTS assay, CEM-VBL (Pgp over-expressing); format: cell-based
Protocol: Over-expression of P-glycoprotein (Pgp, MDR1) renders cells resistant to vinca alkaloid microtubule inhibitors.^43 Therefore, the effects of Pgp over-expression on flubendazole's cytotoxicity were tested. CEM-VBL cells over-express Pgp,^44 which was confirmed with a rhodamine dye exclusion assay. CEM wild type and CEM-VBL cells were treated with increasing concentrations of flubendazole or vinblastine and cell viability measured by the MTS assay (Table 1). […] In contrast, CEM-VBL cells over-expressing Pgp were resistant to vinblastine at concentrations greater than 5.0 μM (Table 1).
Leukemia (U937, MDAY, CEM, CEM-VBL) and solid tumor cell lines (PPC-1, HeLa) were cultured in RPMI 1640 medium. The epidermoid carcinoma cell lines KB-3-1 and KB-4.0-HTI^23 were grown in Dulbecco's Modified Eagle Medium. The lung carcinoma cell lines A549 and A549.EpoB40 were grown in RPMI with the latter supplemented with 20% fetal calf serum (FCS), and 40 nM epothilone B.^24 Leukemia cell lines OCI-AML2, CEM, and NB4 and all the myeloma cell lines (OPM2, KMS11, JJN3 LP1, H929, L1, KMS12, KSM18 and OCI My5) were maintained in Iscove's Modified Dulbecco's Medium (IMDM). TEX cells were maintained in IMDM, 15% FCS, 1% penicillin-streptomycin, 2 mM L-glutamine, 20 ng/mL SCF, 2 ng/mL IL-3. Unless otherwise noted, all media were supplemented with 10% FCS, 100 units/mL of streptomycin and 100 μg/mL of penicillin (all from Hyclone, Logan, Utah). Cells were incubated in a humidified air atmosphere containing 5% CO2 at 37° C.
Cell growth and viability was measured using the 3-(4,5-dimethylthiazol-2-yl)-5-(3-carboxymethoxyphenyl)-2-(4-sulfophenyl)-2H-tetrazolium inner salt (MTS) reduction assay (Promega, Madison, Wis.) according to the manufacture's protocol and as previously described^25. Cells were seeded in 96 well plates and treated with drug for 72 h. Optical density (OD) was measured at 490 nm.

[1] = sheep, cited from earlier work
bovine tubulin [2] = assay: Tubulin polymerization assay; format: biochemical; conditions: cell-free, bovine tubulin 1.8 mg/ml; flubendazole 100 μM
Protocol: (§1) A representative figure is shown.
Polymerization of bovine tubulin was measured according to Beyer et al^28. Briefly, bovine tubulin (1.8 mg/ml; Cytoskeleton; Denver, USA) was added to ice cold polymerization buffer (PEM; 80 mM PIPES, 0.5 mM EGTA, 2 mM MgCl2, 10% glycerol and 1 mM GTP) and centrifuged at top speed in a microcentrifuge for 5 min at 4° C. […] Following addition of tubulin, the plate was immediately placed in the spectrophotometer, which was maintained at 37° C., and the absorbance measured every 3 minutes for 2.5 h at 340 nm.

in vitro = format: cell-based; conditions: human
Protocol: (§2) (E) HeLa cells were grown to confluence and a wound created on the cell monolayer using a 200 μL pipette. Cells were treated with increasing concentrations of flubendazole and imaged every 2 h for 8 h. Wound healing was measured as described in the materials and methods. Representative data is shown and are presented as % wound recovery. *p<0.05 (ANOVA, bonferroni post hoc).
(§3) HeLa cell migration was measured as previously described^30. Briefly, HeLa cells were seeded in 4 well chambers and grown to confluence. A wound was inflicted to the monolayer using a 200 μL pipette tip. Wells were washed with media to remove any detached cells and media containing either 0 μM, 0.5 μM or 1.0 μM flubendazole was then added and incubated at 37° C. for 8 hours. Images were captured using a Zeiss Axiovert 200M microscope every 2 hours. These images were quantified using Image J software, which outlined and enumerated the number of pixels in the wound area. Cell migration of HeLa cells was recorded and calculated as a percent recovery of wound area.

HeLa cells = assay: in vitro; format: cell-based; conditions: HeLa, 0.5 or 1.0 μM, 8 hours
Protocol: as §2, §3

[3] = cited from earlier work
bovine tubulin [4] = assay: Measurement of tubulin sulfhydryl groups (DTNB); format: biochemical; conditions: flubendazole 100 μM, vinblastine 10 μM
Protocol: as §1
The ability of microtubule target drugs to alter tubulin structure was assessed by measuring the number of reactive cysteine residues using the sulfhydryl reagent 5,5′-Dithio-bis(2-nitrobenzoic acid) (DTNB; Sigma) as previously described^19,29. […] After incubation, DTNB was added (100 μM final concentration) and the absorbance was measured in a 1 cm path length cuvette at 412 nm for 60 min at 37° C. The number of sulfhydryl groups were determined by using a molar extinction coefficient for DTNB of 13 600 (M^−1, cm^−1).^29

OPM2 cells = test system: OPM2 cells
Protocol: (C) Sub-lethally irradiated SCID mice were injected subcutaneously with OPM2 cells (n=20; 10 per group). […] Tumor volume and body weight was measured over time. After 17 days, mice were sacrificed and tumors were excised, measured and weighted.
Sub-lethally irradiated SCID mice were injected subcutaneously in the left flank with leukemia OCI-AML2 (2.0×10^6) or myeloma OPM2 (1.0×10^7) cells. Mice were then randomly assigned to receive flubendazole (in 0.9% NaCl and 0.01% tween-80) or vehicle control (0.9% NaCl and 0.01% tween-80) intraperitoneally. […] Tumor volumes (tumor length×width^2×0.5236) were monitored daily using calipers. At the end of the experiment (16-18 days), mice were sacrificed, tumors excised and tumor volume and weight measured. All animal studies were carried out according to the regulations of the Canadian Council on Animal Care and with the approval of the local ethics review board.

[5] = single dose of 5 mg/kg intravenously
[6] = OPM2 xenograft, 50 mg/kg daily intraperitoneally for 17 days, vs vehicle, p<0.05

For `COC(=O)Nc1nc2ccc(C(=O)c3ccc(F)cc3)cc2[nH]1` [flubendazole], the IC50 (CEM-VBL; CEM-VBL, 3 replicates) is listed as 2700 ± 1200 nM, the “sensitivity of CEM-VBL cells compared to wild type controls” value (CEM-VBL; Pgp over-expression) is listed as “fully sensitive” and the estimated half life ([1]; after oral administration) is listed as 6.5 h. For the same compound, the “fraction of flubendazole absorbed” value ([1]; oral) was 18%, the area under the curve (AUC) ([1]; single dose of 5 mg/kg intravenously, over 36 hours) was 22 µM·h and the “area under the curve (AUC)” value [1, 5] was 6.53 µg·h/mL. For the same compound, the toxicity [1, 5] was “no toxicity was observed”, the “effect on tubulin polymerization / microtubule formation” value (bovine tubulin [2]) was “inhibited tubulin polymerization” and the viability at 8 h (in vitro) was over 89%. For the same compound, the “cell migration / wound healing” value (HeLa cells) was “impaired cell migration and delayed wound healing”, the toxicity ([3]; healthy volunteers, single oral doses up to 2000 mg) was “without toxicity” and the toxicity ([3]; humans, 40-50 mg/kg/day for 10 days, neurocysticercosis) was “no toxicity from the drug was reported”. For the same compound, the adverse effects ([3]; patients, up to 50 mg/kg orally daily for up to 24 months) was “without serious adverse effects; also recorded: without adverse effect”, the “reduction in number of reactive cysteines compared to buffer control” value (bovine tubulin [4]) was 5.2±2.6 and the tumor growth (OPM2 cells; [6]) was “significantly delayed tumor growth”. The tumor weights (OPM2 cells; [6]) was “reduced tumor weights” and the “weight loss, behavioral changes or gross organ toxicity” value (OPM2 cells; mouse, in vivo) was “no evidence of weight loss, behavioral changes or gross organ toxicity”.
